Results reported in US8007782B2, “Combination bacteriolytic therapy for the treatment of tumors” (priority 2003, dated 2011).
Where a SMILES comes first, the peptide text is derived from it. [ ]: non-standard residue; d: D form. The star is where a group is joined. Dolaproine = CO[C@@H]([C@@H]1CCCN1)[C@@H](C)C(=O)O; Dil = CC[C@H](C)[C@H](NC)[C@@H](CC(=O)O)OC; NMe2Val = CC(C)[C@@H](C(=O)*)N(C)C

Columns and labels:
[1] = tested on: HCT116 human colorectal cancer cells; test: Tumorigenicity assay, HCT116 xenografts in nude mice; format: in vivo; details: for Effect with C. novyi-NT / Effect alone: nude mice; for Effect alone: agent alone
Description: (§1) All animal protocols were designed in accordance with the Guide for the Care and Use of Laboratory Animals (NIH Publication 86-23) and were approved by the Johns Hopkins University Institutional Animal Care and Use Committee. Six to eight week old mice were implanted subcutaneously on one flank with 3 to 6 million cancer cells. Establishment of tumors of 150 to 500 mm3 took 8 to 21 days, depending on the cell type. C. novyi-NT spores (300×106) and anti-microtubule agents were generally administered by a single intravenous injection through the tail vein in a total volume of 300 to 500 ul phosphate-buffered saline (PBS). Quantitative assessment of tumor growth was performed by measuring subcutaneous tumor grafts (major and minor axis) using electronic calipers. Tumor volume was calculated using the equation: length×width2×0.5. Progression free survival was defined as the length of time following treatment before any increase in tumor volume was observed. Mice were considered “cured” if no tumor was evident three months after treatment. Animals were weighed at least twice a week and carefully observed for signs of toxicity every day for the first week following treatment and then twice a week thereafter. At least five mice were used for each treatment arm described in the Experimental Results.
The timing, route, and dose of agents are critical for the success of any experimental therapy. When two agents are combined, the number of variables that must be tested increases exponentially. To simplify interpretation of the comparisons between various anti-microtubule agents, pilot studies with representative drugs were performed.
Eighteen agents known to interact with microtubules were each tested in this manner in nude mice harboring xenografts of HCT116 human colorectal cancer cells. At least five mice harboring tumors of 150 to 500 mm3 in size were used for each experimental arm. Two classes of responses were noted. One type of response was characterized by a rapid hemorrhagic necrosis, observed only with agents that inhibited microtubule […] (FIG. 1A, B). The other type of response was characterized by a slow regression, observed with agents that stabilized microtubules (FIG. 2A, B).

Weight loss after COBALT = format: in vivo, nude mice; details: drug dose 24.0 mg/kg; maximum average weight loss relative to weight one day prior to treatment; HCT116 xenografts
Description: as §1
(§2) This toxicity was observed only when the combination of C. novyi-NT spores and the drugs was administered and not with either the bacteria or the drugs alone. […] Though major tumor regressions were common, few mice died as a result of therapy (Table 2) No deaths occurred after treatment with the microtubule stabilizers plus C. novyi-NT, while 4% to 8% of mice treated with microtubule destabilizers plus C. novyi-NT died. The only other toxicity observed was transient weight loss (Table 3). Mice treated with the drugs alone lost ˜5 to 10% of their body weight within 7 days, while weight loss after treatment with C. novyi-NT plus these drugs varied from 8% to 18%. All weights recovered to pre-treatment levels within two weeks.

[2] = Mortality following COBALT; format: in vivo, nude mice; details: deaths within one week, pooled xenograft models
Description: as §1, §2

[3] = tested on: HCT116, HuCC-T1, HT-29, SW480, B16 and DLD-1 tumors; test: Low dose HTI-286 and L-NNA on various xenografts (FIG. 10); format: in vivo, mice; details: HTI-286 1 mg/kg without L-NNA; L-NNA 10 mg/kg without HTI-286
Description: FIG. 10A-10F Quantification of the effects of C. novyi-NT plus low doses of HTI-286 and L-NNA on various xenografts (HCT116, HuCC-T1, HT-29, SW480, B16, and DLD-1, respectively).
[…] […] The p-values are based on comparisons between L-NNA+HTI-286 and L-NNA+HTI-286+C. novyi-NT spores. The p-value is indicated only when the result was statistically significant.
All animal protocols were designed in accordance with the Guide for the Care and Use of Laboratory Animals (NIH Publication 86-23) and were approved by the Johns Hopkins University Institutional Animal Care and Use Committee. Six to eight week old mice were implanted subcutaneously on one flank with 3 to 6 million cancer cells. Establishment of tumors of 150 to 500 mm3 took 8 to 21 days, depending on the cell type. C. novyi-NT spores (300×106) and anti-microtubule agents were generally administered by a single intravenous injection through the tail vein in a total volume of 300 to 500 ul phosphate-buffered saline (PBS). Quantitative assessment of tumor growth was performed by measuring subcutaneous tumor grafts (major and minor axis) using electronic calipers. Tumor volume was calculated using the equation: length×width2×0.5. Progression free survival was defined as the length of time following treatment before any increase in tumor volume was observed. Mice were considered “cured” if no tumor was evident three months after treatment. […]

[4] = 15 mg/kg × 1 (iv) with 3×108 C. novyi-NT spores iv
[5] = 20 mg/kg × 1 (iv) with 3×108 C. novyi-NT spores iv
[6] = 5 mg/kg × 1 (ip) with 3×108 C. novyi-NT spores iv
[7] = 10 mg/kg × 1 (ip) with 3×108 C. novyi-NT spores iv

## C=C/C=C\[C@H](C)[C@H](OC(N)=O)[C@@H](C)[C@H](O)[C@@H](C)C/C(C)=C\[C@H](C)[C@@H](O)[C@@H](C)/C=C\[C@@H](O)C[C@@H]1OC(=O)[C@H](C)[C@@H](O)[C@H]1C [discodermolide]
[1]; [4]
  Effect with C. novyi-NT: ++++ (>20% cures)
[1]; [5]
  Effect with C. novyi-NT: ++++ (>20% cures)
[1]; 15 mg/kg × 1 (iv)
  Effect alone: ++ (10% to 50% shrinkage in tumor volume relative to pre-treatment size)
[1]; 20 mg/kg × 1 (iv)
  Effect alone: ++ (10% to 50% shrinkage in tumor volume relative to pre-treatment size)

## COc1ccc(/C=C\c2cc(OC)c(OC)c(OC)c2)cc1OP(=O)(O)O [combretastatin A4P]
[1]; 50 mg/kg × 1 (ip) with 3×108 C. novyi-NT spores iv
  Effect with C. novyi-NT: +
[1]; 200 mg/kg × 1 (ip) with 3×108 C. novyi-NT spores iv
  Effect with C. novyi-NT: +
[1]; 50 mg/kg × 1 (ip)
  Effect alone: 0
[1]; 200 mg/kg × 1 (ip)
  Effect alone: +

## O=C(Nc1ccncc1)C(=O)c1cn(Cc2ccc(Cl)cc2)c2ccccc12 [D-24851]
[1]; 25 mg/kg × 1 (ip) with 3×108 C. novyi-NT spores iv
  Effect with C. novyi-NT: +
[1]; 100 mg/kg × 1 (ip) with 3×108 C. novyi-NT spores iv
  Effect with C. novyi-NT: +
[1]; 25 mg/kg × 1 (ip)
  Effect alone: 0
[1]; 100 mg/kg × 1 (ip)
  Effect alone: 0

## CCC1=C[C@@H]2CN(C1)Cc1c([nH]c3ccccc13)[C@@](C(=O)OC)(c1cc3c(cc1OC)N(C)[C@H]1[C@@](O)(C(=O)OC)[C@H](OC(C)=O)[C@]4(CC)C=CCN5CC[C@]31[C@@H]54)C2 [vinorelbine]
Weight loss after COBALT
  Weight Loss (%): 8.3%
[2]; drug dose 16.0 mg/kg
  # dead (treatment-related deaths): 0
[2]; drug dose 20.0 mg/kg
  # dead (treatment-related deaths): 0
[2]; drug dose 24.0 mg/kg
  # dead (treatment-related deaths): 0
[1]; 16 mg/kg × 1 (iv) with 3×108 C. novyi-NT spores iv
  Effect with C. novyi-NT: ++ (10% to 50% shrinkage in tumor volume relative to pre-treatment size)
[1]; [5]
  Effect with C. novyi-NT: +++ (>50% shrinkage in tumor volume relative to pre-treatment size)
[1]; 24 mg/kg × 1 (iv) with 3×108 C. novyi-NT spores iv
  Effect with C. novyi-NT: +++ (>50% shrinkage in tumor volume relative to pre-treatment size)
[1]; 16 mg/kg × 1 (iv)
  Effect alone: +
[1]; 20 mg/kg × 1 (iv)
  Effect alone: +
[1]; 24 mg/kg × 1 (iv)
  Effect alone: +

## CC[C@H](C)[C@@H]([C@@H](CC(=O)N1CCC[C@H]1[C@H](OC)[C@@H](C)C(=O)N[C@@H](Cc1ccccc1)c1nccs1)OC)N(C)C(=O)[C@@H](NC(=O)[C@H](C(C)C)N(C)C)C(C)C [dolastatin 10]
[1]; 0.30 mg/kg × 1 (iv) with 3×108 C. novyi-NT spores iv
  Effect with C. novyi-NT: +++ (>50% shrinkage in tumor volume relative to pre-treatment size)
[1]; 0.45 mg/kg × 1 (iv) with 3×108 C. novyi-NT spores iv
  Effect with C. novyi-NT: +++ (>50% shrinkage in tumor volume relative to pre-treatment size)
[1]; 0.30 mg/kg × 1 (iv)
  Effect alone: 0
[1]; 0.45 mg/kg × 1 (iv)
  Effect alone: 0

## NC(=NCCC[C@H](N)C(=O)O)N[N+](=O)[O-] [L-NNA]
[3]
  effects on tumor growth when administered without the other agent: no significant effects on tumor growth
[1]
  effect of L-NNA added to C. novyi-NT alone or high doses of HTI-286 plus C. novyi-NT: added little
[1]; L-NNA 10 mg/kg
  effect of L-NNA on responses to low doses of HTI-286: significantly enhanced

## C/C(=C\c1csc(C)n1)[C@@H]1C[C@@H]2O[C@]2(C)CCC[C@H](C)[C@H](O)[C@@H](C)C(=O)C(C)(C)[C@@H](O)CC(=O)O1 [epothilone B]
[1]; 25 mg/kg QD × 4 (ip) with 3×108 C. novyi-NT spores
  Effect with C. novyi-NT: +

## COc1cc2c(c(OC)c1OC)-c1ccc(OC)c(=O)cc1[C@@H](NC(C)=O)CC2 [colchicine]
[1]; [6]
  Effect with C. novyi-NT: +
[1]; [7]
  Effect with C. novyi-NT: +
[1]; 20 mg/kg × 1 (ip) with 3×108 C. novyi-NT spores iv
  Effect with C. novyi-NT: ++ (10% to 50% shrinkage in tumor volume relative to pre-treatment size)
[1]; 5 mg/kg × 1 (ip)
  Effect alone: +
[1]; 10 mg/kg × 1 (ip)
  Effect alone: +
[1]; 20 mg/kg × 1 (ip)
  Effect alone: ++ (10% to 50% shrinkage in tumor volume relative to pre-treatment size)

## COc1ccc2c(c1OC)C(=O)O[C@@H]2[C@H]1c2c(cc3c(c2OC)OCO3)CCN1C [noscapine]
[1]; 50 mg/kg × 1 (iv) with 3×108 C. novyi-NT spores iv
  Effect with C. novyi-NT: +
[1]; 70 mg/kg × 1 (iv) with 3×108 C. novyi-NT spores iv
  Effect with C. novyi-NT: +
[1]; 50 mg/kg × 1 (iv)
  Effect alone: 0
[1]; 70 mg/kg × 1 (iv)
  Effect alone: 0

## CC[C@H](C)[C@@H]([C@@H](CC(=O)N1CCC[C@H]1[C@H](OC)[C@@H](C)C(=O)N[C@@H](Cc1ccccc1)C(=O)OC)OC)N(C)C(=O)[C@@H](NC(=O)[C@H](C(C)C)N(C)C)C(C)C [auristatin PHE] (NMe2Val-V[Dil][Dolaproine]F-OMe)
[1]; 0.2 mg/kg × 1 (iv) with 3×108 C. novyi-NT spores iv
  Effect with C. novyi-NT: +
[1]; 0.2 mg/kg × 1 (iv)
  Effect alone: 0

## C=CC=CC(C)C(OC(N)=O)C(C)C(O)C(C)CC=CC(C)C(O)C(C)C=CC(O)CC1OC(=O)C(C)C(O)C1C (single isomer, unassigned; (+)) [(+)-14-normethyldiscodermolide]
[1]; [4]
  Effect with C. novyi-NT: +
[1]; 15 mg/kg × 1 (iv)
  Effect alone: +

## CC[C@]1(O)C[C@@H]2CN(CCc3c([nH]c4ccccc34)[C@@](C(=O)OC)(c3cc4c(cc3OC)N(C)[C@H]3[C@@](O)(C(=O)OC)[C@H](OC(C)=O)[C@]5(CC)C=CCN6CC[C@]43[C@@H]65)C2)C1 [vinblastine]
[1]; [6]
  Effect with C. novyi-NT: 0
[1]; [7]
  Effect with C. novyi-NT: +
[1]; 5 mg/kg × 1 (ip)
  Effect alone: 0
[1]; 10 mg/kg × 1 (ip)
  Effect alone: +

## CC[C@]1(O)C[C@H]2CN(CCc3c([nH]c4ccccc34)[C@@](C(=O)OC)(c3cc4c(cc3OC)N(C=O)[C@H]3[C@@](O)(C(=O)OC)[C@H](OC(C)=O)[C@]5(CC)C=CCN6CC[C@]43[C@@H]65)C2)C1 [vincristine]
[1]; [6]
  Effect with C. novyi-NT: 0
[1]; [7]
  Effect with C. novyi-NT: +
[1]; 5 mg/kg × 1 (ip)
  Effect alone: 0
[1]; 10 mg/kg × 1 (ip)
  Effect alone: 0

## CC(=O)O[C@H]1C(=O)[C@@]2(C)[C@H]([C@H](OC(=O)c3ccccc3)[C@]3(O)C[C@H](OC(=O)[C@H](O)[C@@H](NC(=O)c4ccccc4)c4ccccc4)C(C)=C1C3(C)C)[C@]1(OC(C)=O)CO[C@@H]1C[C@@H]2O [paclitaxel]
[1]; [4]
  Effect with C. novyi-NT: 0
[1]; 30 mg/kg × 1 (iv) with 3×108 C. novyi-NT spores iv
  Effect with C. novyi-NT: +
[1]; 15 mg/kg × 1 (iv)
  Effect alone: 0
[1]; 30 mg/kg × 1 (iv)
  Effect alone: 0

## arsenic trioxide
[1]; [7]
  Effect with C. novyi-NT: +
[1]; 10 mg/kg × 1 (ip)
  Effect alone: 0

## CC[C@H](C)[C@@H]([C@@H](CC(=O)N1CCC[C@H]1[C@H](OC)[C@@H](C)C(=O)NCCc1ccccc1)OC)N(C)C(=O)[C@@H](NC(=O)[C@H](C(C)C)N(C)C)C(C)C [auristatin PE]
[1]; 2 (2.0) mg/kg × 1 (iv) with 3×108 C. novyi-NT spores iv
  Effect with C. novyi-NT: +
[1]; 2 (2.0) mg/kg × 1 (iv)
  Effect alone: 0
